Assay results taken from patent US7169290B1, “Biosensor for metal analysis and speciation” (Battelle Energy Alliance, LLC, priority 2002, dated 2007).

What was measured:
Assay type in all cases: biochemical
[1] = molecular target: T1, purified A. niger NR (E.C. 1.6.6.2) (Aspergillus niger, UniProt P36858); assay: Evaluation of buffer-metal interactions, NR activity by rate of NADPH disappearance; settings: 5 μM metal; for NR sensitivity to metal in TRIS buffered system: 30 mM TRIS buffer pH 7.5; for NR sensitivity to metal in phosphate buffered system: 30 mM phosphate buffer pH 7.5
T1 construct: purchased Sigma-Aldrich Co. (St. Louis, Mo.)
T1 sequence (P36858 1-867): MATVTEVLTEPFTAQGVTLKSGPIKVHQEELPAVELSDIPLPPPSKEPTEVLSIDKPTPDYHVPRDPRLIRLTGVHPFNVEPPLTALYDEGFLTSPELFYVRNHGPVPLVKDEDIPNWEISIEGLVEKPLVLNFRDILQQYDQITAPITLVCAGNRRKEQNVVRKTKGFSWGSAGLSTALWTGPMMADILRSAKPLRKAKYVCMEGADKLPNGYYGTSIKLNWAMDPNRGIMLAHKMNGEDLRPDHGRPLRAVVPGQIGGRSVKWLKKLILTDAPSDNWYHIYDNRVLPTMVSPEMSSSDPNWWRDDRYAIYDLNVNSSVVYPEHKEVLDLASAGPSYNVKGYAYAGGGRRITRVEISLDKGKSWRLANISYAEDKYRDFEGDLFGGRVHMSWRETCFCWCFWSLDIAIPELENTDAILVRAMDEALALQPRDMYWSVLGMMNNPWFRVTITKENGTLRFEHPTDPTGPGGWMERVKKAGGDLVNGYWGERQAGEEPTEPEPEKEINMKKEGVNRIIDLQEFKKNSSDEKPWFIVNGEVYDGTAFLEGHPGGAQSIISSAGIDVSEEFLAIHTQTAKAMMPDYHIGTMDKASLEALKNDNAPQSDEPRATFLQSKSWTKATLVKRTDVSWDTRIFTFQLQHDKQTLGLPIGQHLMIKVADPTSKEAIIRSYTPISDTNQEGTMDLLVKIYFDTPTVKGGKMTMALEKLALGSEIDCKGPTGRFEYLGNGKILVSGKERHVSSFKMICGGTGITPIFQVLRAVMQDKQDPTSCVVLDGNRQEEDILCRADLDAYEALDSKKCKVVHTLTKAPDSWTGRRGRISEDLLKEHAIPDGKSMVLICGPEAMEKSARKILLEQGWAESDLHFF
Description: To determine the buffer that would provide minimal metal-buffer complexation and, therefore, allow maximal metal inhibition to NR activity, an analysis of various pH buffers was performed. HEPES, MOPS, PIPES, phosphate, and TRIS buffers were individually evaluated in the presence of NR and 5 μM of each of the following metals: Cr^3+, Cr^6+, Cd^2+, Cu^2+, Pb^2+, and Zn^2+. An unbuffered assay system was used to establish a baseline of metal-induced enzyme inhibition. Reagents were added in the following order: the metal stock solution, the buffer solution, KNO3 solution, NR, and NADPH.
For these buffer experiments, NR and NADPH solutions were prepared in water rather than in the 30 mM MOPS, as was done for all other experiments. The final concentration of all reagents was 30 mM of each respective buffer, 5 μM metal, 50 μg ml^−1 NR, 10 mM KNO3 and 0.1 mM NADPH. NADPH addition initiated the reaction but NR activity was determined following the method described in Gilliam et al., Anal. Biochem., 212:359–365 (1993), which is based on the rate of NADPH disappearance. The presence of NADPH, which has a peak absorbance at 340 nm, was monitored with respect to time for 3 minutes using a Hewlett Packard 8452A UV-Vis spectrophotometer. NR activity was then reported as a ratio of the change in absorbance of a metal-containing sample to the change in absorbance of a positive (metal-free) control. The inherent instability of NADPH and the potential for oxidation in the presence of the metals used in these experiments was accounted for in negative controls, which contained all reagents but NR.
To select a buffering system that allowed for maximum inhibition of the enzyme by metal ions, several common buffers, HEPES, MOPS, PIPES, Phosphate and TRIS were tested in metal inhibition assays. The buffers used in the assay affected the sensitivity of NR to the metal ions examined due to some of the buffers' ability to chelate metal ions, as shown in FIG. 1. NR activity is reported as the percent of a metal free control. Values represent the averages of five replicate experiments. NR activity assays were also run in an unbuffered water system to establish a baseline level of metal sensitivity and to determine if the buffers were shielding NR from inhibition by any of the metals that were examined. An unbuffered assay system was not selected for further experiments because the pH was not uniformly maintained for the various conditions under which NR activity would be measured. […] Therefore, MOPS was chosen for use in subsequent metal inhibition assays over a wider range of metal concentrations. The phosphate and TRIS buffers appeared to selectively protect NR against different metals. […] The opposite was found when the assay was conducted in a TRIS buffered system where NR was insensitive to Cu^2+ ions and was inhibited by Cd^2+, Cr^6+, Pb^2+, and Zn^2+.

[2] = molecular target: T1, purified A. niger NR (E.C. 1.6.6.2); assay: Regeneration of metal inactivated NR activity by 10 mM EDTA; settings: for NR activity after EDTA treatment, % of control: 100 μM metal five minutes, then 10 mM EDTA; for restoration of NR activity by EDTA after metal exposure / NR activity before EDTA treatment, % of control: 100 μM metal; for restoration of NR activity by EDTA after metal exposure: 10 mM EDTA; for NR activity before EDTA treatment, % of control: five minutes, 25° C., 10 mM KNO3
Description: To determine whether inhibition caused by exposure to the metals could be reversed by the addition of EDTA, NR was exposed to 100 μM of the following metals: Cd^2+, Cr^3+, Cu^2+, Pb^2+ and Zn^2+ for five minutes in a 96-well plate and incubated at 25° C. with 10 mM KNO3. After five minutes, 10 mM EDTA was added and solutions were shaken for 10 seconds. NADPH was added to sets of positive controls, negative controls, and metal/NR and EDTA for evaluation of NR activity both immediately after EDTA addition and 30 minutes after EDTA addition. Enzyme activity was measured by determining the amount of nitrite produced and reported as a percent of a positive control.

[3] = molecular target: T1, purified A. niger NR (E.C. 1.6.6.2); assay: Metal inhibition of NR activity, colorimetric nitrite production (Griess reaction), MOPS buffer; settings: for enzyme inhibition: 1 μM metal ion; for enzyme inhibition / span of concentrations over which NR activity is inhibited: MOPS buffer; for span of concentrations over which NR activity is inhibited: no chelating agent
Description: NR activity was measured using the Griess reaction in which nitrite is colorimetrically determined by diazotization and diazomium coupling reactions of nitrite with sulfanilamide and N-(1-naphthyl)ethylenediamine. Measurements were conducted in 96-well microtiter plates, allowing multiple reactions to be quantified simultaneously. The assay followed the method as described in R. Kneer et al., Phytochemistry, 31:2663–2667 (1992), with modifications including the adaptation for use in a 96-well plate format, the reduction of the assay time to 5 minutes, and the substitution of a 12.5 mM MOPS buffer instead of the 33 mM TRIS buffer used.
This was followed by the addition of 40 μl 0.2% (wt.) N-(1-naphthyl)ethylenediamine. The absorbance of the resulting pink solution read at 540 nm was recorded after ten minutes using a microplate reader (HTS7000 Plus Bioassay Reader, Perkin Elmer, Conn.).
Negative controls containing all reagents except NR were run and analyzed for nitrite. An activity of 100% indicated the rate of nitrate conversion in the absence of Cr(III). Positive controls, which comprised no metal but comprised all other reagents, were also run. Additional controls comprising nitrite, NR and NADPH were run to rule out the possibility that NR reduced the nitrite.
NR activity is reported as a percentage of the experimentally measured activity of the positive (metal-free) control or as a ratio of the change in absorbance of a metal-containing sample to the change in absorbance of a positive (metal-free) control. An activity of 100% indicated the rate of nitrate conversion in the absence of the metal. Data points represent the averages of seven replicate experiments and error bars represent the standard deviation of those averages, unless otherwise stated.
NR, NADPH, and KNO3 were used in the same concentrations as in the metal-free NR and buffer evaluation assays. For metal-inhibition studies in the absence of a chelating agent, the appropriate concentration of metal stock solution was added to the NR and KNO3 solution. The mixture was allowed to incubate at 25° C. for five minutes prior to the addition of NADPH to allow adequate time for the metal and NR to interact. A 12.5 mM MOPS buffer solution was used to maintain the pH at 7.5. Final metal concentrations in the assay solution ranged from 0.01 μM to 1000 μM. Enzyme activity was determined as described above by the calorimetric quantification of nitrite production and reported as a percentage of the nitrite produced in a metal-free control.
The sensitivity of NR to Cr(III) was determined at concentrations ranging from 1 to 10 μM. […] To further determine the extent to which NR was sensitive to metals in aqueous samples, the activity of purified NR was evaluated in the presence of Cd^2+, Cu^2+, Cr^3+, Cr^6+, Ni^2+, Pb^2+, and Zn^2+ ions at concentrations ranging from 0.01 to 1000 μM.

[4] = molecular target: T1, purified A. niger NR (E.C. 1.6.6.2); assay: EDTA and NTA chelation experiments, NR activity by nitrite production; settings: for effect of EDTA on the metal's ability to inhibit NR: EDTA 0.1 to 10 mM
Description: To determine the ability of chelating agents to prevent NR inhibition, EDTA or NTA was added to the enzymatic assay. For the experiments in which either EDTA or NTA was used, the reagents were added in the following order: the appropriate metal solution, EDTA or NTA, NR, nitrate, and finally NADPH. To allow sufficient time for the metal and chelating agent to react, the metal and either EDTA or NTA were added together prior to the addition of NR. Final assay metal ion concentrations ranged from 0.01 to 1000 μM. EDTA and NTA had final concentrations of 0.1 mM, 1 mM and 10 mM. Final concentrations of NR, KNO3 and NADPH were as described above. NR activity was assayed by monitoring the production of nitrite, as described above.

[5] = 12.5 mM MOPS pH 7.5, no chelating agent

Structure (SMILES) | NR sensitivity to metal in TRIS buffered system [1] | NR sensitivity to metal in phosphate buffered system [1] | NR activity after EDTA treatment, % of control [2] | restoration of NR activity by EDTA after metal exposure [2] | NR activity before EDTA treatment, % of control [2] | enzyme inhibition [3] | metal concentration at which NR activity was substantially inhibited [3, 5] | span of concentrations over which NR activity is inhibited [3] | metal concentrations over which NTA protected NR from metal induced inhibition ([4]; 10 mM NTA) | NR activity retained, percent of original activity (metal free control) ([3]; 1000 μM metal ion, 12.5 mM MOPS pH 7.5) | metal concentration at which NR activity was inhibited / adversely affected [3, 5] | metal concentration at which NR activity was substantially inhibited ([3]; 12.5 mM MOPS pH 7.5, no chelating agent, listed as Cr^6+) | effect of NTA on the inhibitory effects of the metal ([4]; 1 mM NTA) | increase of the concentration range over which the metal inhibited NR ([4]; 10 mM EDTA) | metal concentration up to which EDTA protected NR activity ([4]; 10 mM EDTA) | protection of NR by NTA from exposure to the metal ([4]; 10 mM NTA) | effect of EDTA on the metal's ability to inhibit NR ([4]; listed as Cr(VI)) | effect of EDTA on the metal's ability to inhibit NR ([4]; listed as Cr^6+) | NTA concentration up to which the metal's inhibitory effects on NR activity were not affected ([4]; NTA added to assay)
[Pb+2] [Pb^2+, lead] | inhibited | relatively insensitive | 40% ± | partially restored | 1.3% ± | – | – | – | – | – | – | – | – | – | – | – | – | – | –
[Cu+2] [Cu^2+, copper] | insensitive | inhibited | 5.1% ± 1.5% | unable to significantly restore | 1.0% ± 0.3% | 76% | 1 µM | several orders of magnitude | up to 100 μM | – | – | – | – | – | – | – | – | – | –
[Ni+2] [Ni^2+, nickel] | – | – | – | – | – | – | – | – | – | ~20% | over 100 μM | – | – | – | – | – | – | – | –
[Cd+2] [Cd^2+, cadmium] | inhibited | relatively insensitive | 28% ± | partially restored | 2.7% ± | – | – | – | – | – | – | – | – | – | – | – | – | – | –
[Zn+2] [Zn^2+, zinc] | inhibited | relatively insensitive | 54% ± | partially restored | 6.6% ± | – | – | – | – | – | – | – | – | – | – | – | – | – | –
[Cr+3] [Cr^3+, chromium] | inhibited | relatively insensitive | 4.3% ± 1.9% | unable to significantly restore | 5.7% ± 10% | 62% | above 4 μM | several orders of magnitude | – | – | – | 1 µM | did not affect | two orders of magnitude | up to 100 μM | did not protect | unchanged | virtually unaffected | up to 10 mM
